# Measurements taken from patent US20230111768A1 (Razi University, priority 2021, published 2023).
# What was measured:
# Format in all cases: cell-based
# PANC-1 cell line = assay: MTT assay on PANC-1 cell line; details: Homo sapiens, after 24 hours of treatment, pancreas ductal adenocarcinoma cell line
# Description: (§1) In this example, anti-cancer activity of benzo[4,5]imidazo[2,1-b]pyrimido[4,5-d][1,3]thiazine-2,4(3H)-dione and benzo[4,5]imidazo[2,1-b][1,3]thiazin-4-one was evaluated on A-431 cell line (an exemplary epidermoid carcinoma cell line), PC-3 cell line (an exemplary classical prostate cancer cell line), PANC-1 cell line (an exemplary pancreas ductal adenocarcinoma cell line)) by conducting an exemplary […] (MTT) assay. Cytotoxic effect of benzo[4,5]imidazo[2,1-b]pyrimido[4,5-d][1,3]thiazine-2,4(3H)-dione and benzo[4,5]imidazo[2,1-b][1,3]thiazin-4-one was also evaluated on Human Dermal Fibroblasts (HDF) cell line (an exemplary normal, human, adult cell line).
# (§2) Meanwhile, the A-431, PC-3, and PANC-1 cell lines were tested by MTT assay after being cultured in DMSO with a concentration of about 1% (v/v) and Etoposide (an anti-cancer chemotherapy drug) as negative and positive controls, respectively. […] “IC50” may refer to a concentration of a compound that may inhibit cell growth and proliferation by 50%.
# PC-3 cell line = assay: MTT assay on PC-3 cell line; details: Homo sapiens, after 24 hours of treatment, prostate cancer cell line
# Description: as §1, §2
# A-431 cell line = assay: MTT assay on A-431 cell line; details: Homo sapiens, after 24 hours of treatment, epidermoid carcinoma cell line
# Description: as §1, §2
# [1] = test system: Human Dermal Fibroblasts (HDF) cell line; assay: MTT assay, cytotoxic effect on Human Dermal Fibroblasts (HDF) cell line; details: after 24 hours of treatment, normal human adult cell line
# Description: as §1, §2
IC50 (PANC-1 cell line),IC50 (PC-3 cell line),IC50 (A-431 cell line),SMILES,IC50 [1]
24.6 µM,31.9 µM,25.3 µM,Cc1ccc(C2=C3C(=O)N(C)C(=O)N(C)C3n3c(nc4ccccc43)S2)cc1 (centres unmarked),> 100 µM
32.2 µM,25.2 µM,27 µM,"COc1cc([C@@H]2c3cc4c(cc3[C@@H](O[C@@H]3O[C@@H]5CO[C@@H](C)O[C@H]5[C@H](O)[C@H]3O)[C@H]3COC(=O)[C@H]23)OCO4)cc(OC)c1O [Etoposide, reference compound]",> 100 µM
